Like-named read-outs stand apart in the source and are kept apart here.
What was measured:
HCC827/ER cells = experiment: Cell viability assay (CellTiter-Glo 2.0), erlotinib-resistant HCC827/ER cells; assay type: cell-based, human; conditions: Homo sapiens, HCC827ER, read-out: Relative cell viability
Excerpt: (§1) To explore c-MET and AXL mechanisms of EGFR TKI resistance, resistant cells of the EGFR TKI hypersensitive EGFR exon 19 mutant NSCLC cell line, HCC827 and PC9 were generated by exposing these cells to increasing concentrations of EGFR TKI for over 3 months.
(§2) Gefitinib-resistant cells were referred to as HCC827/GR. […] Osimertinib-resistant cells were referred to as HCC827/OR.

PC9/ER cells = experiment: Cell viability assay (CellTiter-Glo 2.0), erlotinib-resistant PC9/ER cells; assay type: cell-based; conditions: Homo sapiens, PC-9/ER, 72 h drug treatment, read-out: Relative cell viability, IC50 PC9ER
Excerpt: as §1, §2

HCC827/OR cells = experiment: Cell viability assay (CellTiter-Glo 2.0), osimertinib-resistant HCC827/OR cells; assay type: cell-based, human; conditions: Homo sapiens, HCC827, 72 h drug treatment, read-out: Relative cell viability, IC50 HCC827OR
Excerpt: as §1, §2

HCC827/GR cells = experiment: Cell viability assay (CellTiter-Glo 2.0), gefitinib-resistant HCC827/GR cells; assay type: cell-based, human; conditions: Homo sapiens, HCC827, 72 h drug treatment, read-out: Relative cell viability, IC50 HCC827GR
Excerpt: as §1
The human cell line HCC827 was purchased from the American Type Culture Collection (Manassas, VA), and the PC9 cell line was obtained from RIKEN Cell Bank (Ibaraki, Japan). […] Gefitinib-resistant cells were referred to as HCC827/GR. […] Osimertinib-resistant cells were referred to as HCC827/OR.
(§3) Cell viability assays were carried out by plating 1,000 cells per well of HCC827 or PC9 resistant cells, respectively, into white transparent-bottom 384-well plates. The cells were treated with each TKI across a 10-dose range from 1 nM to 10,000 nM. After 72 h of drug treatment, cell viability was measured using the CellTiter-Glo 2.0 assay (Promega, Madison, WI).
as §3

[1] = Table 2, 72 h drug treatment, EGFR TKI resistant cells, combination with EGFR TKI
[2] = Table 2, EGFR TKI resistant cells, combination with EGFR TKI
[3] = Table 4, 72 h drug treatment, combinations of EGFR TKIs and inhibitor of Formula (I)
[4] = Table 4, combinations of EGFR TKIs and inhibitor of Formula (I)

Row | SMILES | IC50 (HCC827/ER cells; [1]) [nM] | IC50 (PC9/ER cells; [2]) [nM] | IC50 (HCC827/OR cells; [2]) [nM] | IC50 (HCC827/GR cells; [2]) [nM] | IC50 (HCC827/ER cells; [3]) [nM] | IC50 (PC9/ER cells; [4]) [nM] | IC50 (HCC827/OR cells; [4]) [nM] | IC50 (HCC827/GR cells; [4]) [nM]
1 | COCCN1CCN(CC#Cc2c(Oc3ccc(NC(=O)c4cn(C(C)C)c(=O)n(-c5ccc(F)cc5)c4=O)cc3F)ccnc2N)CC1 [Example 18, N-(4-(2-amino-3-(3-(4-(2-methoxyethyl)piperazin-1-yl)prop-1-ylny)pyridin-4-yloxy)-3-fluorophenyl)-3-(4-fluorophenyl)-1-isopropyl-2,4-dioxo-1,2,3,4-tetrahydropyrimidine-5-carboxamide] | < 10 | < 100 | < 10 | < 100 |  |  |  | 
2 | CC(C)n1cc(C(=O)Nc2ccc(Oc3ccnc(N)c3C#Cc3ccccn3)c(F)c2)c(=O)n(-c2ccc(F)cc2)c1=O [Example 9, N-(4-(2-amino-3-(pyridin-2-ylethnyl)pyridin-4-yloxy)-3-fluorophenyl)-3-(4-fluorophenyl)-1-isopropyl-2,4-dioxo-1,2,3,4-tetrahydropyrimidine-5-carboxamide] | < 100 | > 10000 | < 100 | < 100 |  |  |  | 
3 | CC(C)n1cc(C(=O)Nc2ccc(Oc3ccnc(N)c3C#CC(C)(C)N3CCOCC3)c(F)c2)c(=O)n(-c2ccc(F)cc2)c1=O [Example 25, N-(4-(2-amino-3-(3-methyl-3-morpholinobut-1-ynyl)pyridin-4-yloxy)-3-fluorophenyl)-3-(4-fluorophenyl)-1-isopropyl-2,4-dioxo-1,2,3,4-tetrahydropyrimidine-5-carboxamide] | < 10 | < 10 | < 10 | < 10 |  |  |  | 
4 | C=CCn1cc(C(=O)Nc2ccc(Oc3ccnc(N)c3C#CCN3CCOCC3)c(F)c2)c(=O)n(CC=C)c1=O [Example 67, 1,3-diallyl-N-(4-(2-amino-3-(3-morpholinoprop-1-ynyl)pyridin-4-yloxy)-3-fluorophenyl)-2,4-dioxo-1,2,3,4-tetrahydropyrimidine-5-carboxamide] |  |  |  |  | < 100 | < 1000 | < 1000 | < 100
5 | COCCN1CCN(C(=O)C#Cc2c(Oc3ccc(NC(=O)c4cn(C(C)C)c(=O)n(-c5ccc(F)cc5)c4=O)cc3F)ccnc2N)CC1 [Example 2, N-(4-(2-amino-3-(3-(4-(2-methoxyethyl)piperazin-1-yl)-3-oxoprop-1-ynyl)pyridin-4-yloxy)-3-fluorophenyl)-3-(4-fluorophenyl)-1-isopropyl-2,4-dioxo-1,2,3,4-teterahydropyrimidine-5-carboxamide] | < 10 | < 10 | < 10 | < 10 |  |  |  | 
6 | C=CCn1cc(C(=O)Nc2ccc(Oc3ccnc(N)c3C#CC(C)(C)N3CCN(C)CC3)c(F)c2)c(=O)n(CC=C)c1=O [Example 68, 1,3-diallyl-N-(4-(2-amino-3-(3-methyl-3-(4-methylpiperazin-1-yl)but-1-ynyl)pyridin-4-yloxy)-3-fluorophenyl)-2,4-dioxo-1,2,3,4-tetrahydropyrimidine-5-carboxamide] |  |  |  |  | < 1000 | < 10000 | < 1000 | < 1000
7 | CCCn1cc(-c2c(Oc3ccc(NC(=O)c4cn(C(C)C)c(=O)n(-c5ccc(F)cc5)c4=O)cc3F)ccnc2N)cn1 [Example 12, N-(4-(2-amino-3-(1-propyl-1H-pyrazol-4-yl)pyridine-4-yloxy)-3-fluorophenyl)-3-(4-fluorophenyl)-1-isopropyl-2,4-dioxo-1,2,3,4-tetrahydropyrimidine-5-carboxamide] | < 100 | < 1000 | < 10 | < 100 |  |  |  | 
8 | Cc1noc(C)c1-c1c(Oc2ccc(NC(=O)c3cn(C(C)C)c(=O)n(-c4ccc(F)cc4)c3=O)cc2F)ccnc1N [Example 11] | < 10000 | < 10000 | < 10000 | < 10000 |  |  |  | 
9 | CC(C)n1cc(C(=O)Nc2ccc(Oc3ccnc(N)c3C#CC3CCNCC3)c(F)c2)c(=O)n(-c2ccc(F)cc2)c1=O [Example 15, N-(4-(2-amino-3-(piperidin-4-ylethynyl)pyridin-4-yloxy)-3-fluorophenyl)-3-(4-fluorophenyl)-1-isopropyl-2,4-dioxo-1,2,3,4-tetrahydropyrimidine-5-carboxamide] | < 100 | < 10 | < 10 | < 100 |  |  |  | 
10 | CC(C)(C#Cc1c(Oc2ccc(NC(=O)c3c[nH]c(=O)n(-c4ccc(F)cc4)c3=O)cc2F)ccnc1N)N1CCOCC1 [Example 50, N-(4-(2-amino-3-(3-methyl-3-morpholinobut-1-ynyl)pyridin-4-yloxy)-3-fluorophenyl)-3-(4-fluorophenyl)-2,4-dioxo-1,2,3,4-tetrahydropyrimidine-5-carboxamide] |  |  |  |  | < 100 | < 100 | < 100 | < 1000

The remaining lines, values ahead:

Row | IC50 (HCC827/ER cells; [1]) [nM] | IC50 (PC9/ER cells; [2]) [nM] | IC50 (HCC827/OR cells; [2]) [nM] | IC50 (HCC827/GR cells; [2]) [nM] | IC50 (HCC827/ER cells; [3]) [nM] | IC50 (PC9/ER cells; [4]) [nM] | IC50 (HCC827/OR cells; [4]) [nM] | IC50 (HCC827/GR cells; [4]) [nM] | SMILES
11 |  |  |  |  | < 100 | < 100 | < 100 | < 100 | Cc1nc(Cn2cc(C(=O)Nc3ccc(Oc4ccnc(N)c4C#CC(C)(C)N4CCOCC4)c(F)c3)c(=O)n(-c3ccc(F)cc3)c2=O)cs1 [Example 39, N-(4-((2-amino-3-(3-methyl-3-morpholinobut-1-yn-1-yl)pyridin-4-yl)oxy)-3-fluorophenyl)-3-(4-fluorophenyl)-1-((2-methylthiazol-4-yl)methyl)-2,4-dioxo-1,2,3,4-tetrahydropyrimidine-5-carboxamide]
12 |  |  |  |  | < 10000 | < 10000 | < 10000 | < 10000 | CN1CCC(CC#Cc2c(Oc3ccc(NC(=O)c4cn(CC(=O)N(C)C)c(=O)n(-c5ccc(F)cc5)c4=O)cc3F)ccnc2N)CC1 [Example 37, N-(4-((2-amino-3-(3-(1-methylpiperidin-4-yl)prop-1-yn-1-yl)pyridin-4-yl)oxy)-3-fluorophenyl)-1-(2-(dimethylamino)-2-oxoethyl)-3-(4-fluorophenyl)-2,4-dioxo-1,2,3,4-tetrahydropyrimidine-5-carboxamide]
13 |  |  |  |  | < 1000 | < 1000 | < 1000 | < 1000 | Cc1nc(Cn2cc(C(=O)Nc3ccc(Oc4ccnc(N)c4C#CC(C)(C)N4CCNCC4)c(F)c3)c(=O)n(-c3ccc(F)cc3)c2=O)cs1 [Example 41, N-(4-((2-amino-3-(3-methyl-3-(piperazin-1-yl)but-1-yn-1-yl)pyridin-4-yl)oxy)-3-fluorophenyl)-3-(4-fluorophenyl)-1-((2-methylthiazol-4-yl)methyl)-2,4-dioxo-1,2,3,4-tetrahydropyrimidine-5-carboxamide]
14 |  |  |  |  | < 10000 | < 10000 | < 10000 | < 10000 | CN1CCN(C(C)(C)C#Cc2c(Oc3ccc(NC(=O)c4cn(CC(=O)N(C)C)c(=O)n(-c5ccc(F)cc5)c4=O)cc3F)ccnc2N)CC1 [Example 36, N-(4-((2-amino-3-(3-methyl-3-(4-methylpiperazin-1-yl)but-1-yn-1-yl)pyridin-4-yl)oxy)-3-fluorophenyl)-1-(2-(dimethylamino)-2-oxoethyl)-3-(4-fluorophenyl)-2,4-dioxo-1,2,3,4-tetrahydropyrimidine-5-carboxamide]
15 | < 10 | < 10 | < 10 | < 10 |  |  |  |  | COCCN1CCC(C#Cc2c(Oc3ccc(NC(=O)c4cn(C(C)C)c(=O)n(-c5ccc(F)cc5)c4=O)cc3F)ccnc2N)CC1 [Example 16]
16 | < 10 | < 1000 | < 10 | < 10 |  |  |  |  | CC(C)n1cc(C(=O)Nc2ccc(Oc3ccnc(N)c3-c3cnn(C)c3)c(F)c2)c(=O)n(-c2ccc(F)cc2)c1=O [Example 7, N-(4-(2-amino-3-(1-methyl-1H-pyrazol-4-yl)pyridin-4-yloxy)-3-fluoropehynl)-1-isopropyl-2,4-dioxo-1,2,3,4-tetrahydropyrimidine-5-carboxamide]
17 |  |  |  |  | < 10000 | > 10000 | < 10000 | > 10000 | CN(C)C(=O)Cn1cc(C(=O)Nc2ccc(Oc3ccnc(N)c3C#CC(C)(C)N3CCNCC3)c(F)c2)c(=O)n(-c2ccc(F)cc2)c1=O [Example 35, N-(4-((2-amino-3-(3-methyl-3-(piperazin-1-yl)but-1-yn-1-yl)pyridin-4-yl)oxy)-3-fluorophenyl)-1-(2-(dimethylamino)-2-oxoethyl)-3-(4-fluorophenyl)-2,4-dioxo-1,2,3,4-tetrahydropyrimidine-5-carboxamide]

From US12421207B2 (CMG Pharmaceutical Co., Ltd., priority 2022, dated 2025)
